Measured values: US20220041583A1, “IMMUNOMODULATORS, COMPOSITIONS AND METHODS THERE OF” (BETTA PHARMACEUTICALS CO., LTD, priority 2018, published 2022)

Columns and labels:
[1] = Pharmacokinetic Assay; assay type: in vivo; settings: rat; male rats, single oral (intragastric) dose 25 mg/kg, plasma
Experimental: Healthy adult male rats were subjected to single-dose of the test compounds with 10% DMSO, 10% Kolliphor® HS 15 and 80% Saline as excipients, and the rats were giving oral administration (intragastric administration) with the compounds at a dose of 25 mg/kg, Before the experiment, the animals were fasted overnight, and the fasting time last from 12 hrs prior to the administration to 4 hrs after the administration. Time of blood collection: 15 min, 30 min, 1 h, 2 h, 4 h, 7 h, 24 h. Approximately 0.3 mL of whole blood was collected from retro-orbital venous sinus, and placed into tubes that contained EDTA as an anticoagulant. The samples were centrifuged at 4° C. and 4000 rpm for 5 min. The plasma was transferred into centrifuge tubes, and stored at −20° C. till being analyzed. Concentrations of test compounds in the plasma samples were analyzed with liquid chromatography-tandem mass spectrometry (LC-MS/MS). Plasma concentration-time data of individual animals was analyzed using WinNonlin (version 4.1; Pharsight) software. Non-compartmental model was introduced in concentration analysis. The pharmacokinetic parameters of the test compounds were calculated.

[2] = target: T1, PD-1/PD-L1 (Homo sapiens, UniProt Q9NZQ7); test: PD-1/PD-L1 homogenous time-resolved fluorescence (HTRF) binding assay
T1 construct: Recombinant human PD-L1 protein (19-238) with a His-tag at the C-terminus; purchased AcroBiosystems PD1-H5229 (PD-L1); PD1-H5257 (PD-1)
Experimental: Resolved Fluorescence (HTRF) Binding Assay
The assays were conducted in a standard black 384-well polystyrene plate with a final volume of 20 μL. Inhibitors were first serially diluted in DMSO and then added to the plate wells before the addition of other reaction components. The final concentration of DMSO in the assay was 1%. The assays were carried out at 25° C. in the PBS buffer (pH 7.4) with 0.05% Tween-20 and 0.1% BSA. Recombinant human PD-L1 protein (19-238) with a His-tag at the C-terminus was purchased from AcroBiosy stems (PD1-H5229). Recombinant human PD-1 protein (25-167) with Fc tag at the C-terminus was also purchased from AcroBiosystems (PD1-H5257). PD-L1 and PD-1 proteins were diluted in the assay buffer and 10 μL was added to the plate well. Plates were centrifuged and proteins were preincubated with inhibitors for 40 min. The incubation was followed by the addition of 10 μL of HTRF detection buffer supplemented with Europium cryptate-labeled anti-human IgG (PerkinElmer-AD0212) specific for Fc and anti-His antibody conjugated to SureLight®-Allophycocyanin (APC, PerkinElmer-AD0059H). After centrifugation, the plate was incubated at 25° C. for 60 min. Before reading on a PHERAstar FS plate reader (665 nm/620 nm ratio). Final concentrations in the assay were […] PD1, 10 nM PD-L1, 1 nM europium anti-human IgG and 20 nM anti-His-Allophycocyanin. IC50 determination was performed by fitting the curve of percent control activity versus the log of the inhibitor concentration using the GraphPad Prism 5.0 software.

T1 sequence (Q9NZQ7 19-238): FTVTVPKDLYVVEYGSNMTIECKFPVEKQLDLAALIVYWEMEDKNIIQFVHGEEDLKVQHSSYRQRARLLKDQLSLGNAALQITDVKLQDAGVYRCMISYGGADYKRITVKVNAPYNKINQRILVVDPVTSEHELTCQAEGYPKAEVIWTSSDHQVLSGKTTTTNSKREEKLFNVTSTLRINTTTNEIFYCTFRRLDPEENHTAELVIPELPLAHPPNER

Structure (SMILES) | AUC [1] [µg·h/mL] | Cmax [1] [ng/mL] | Tmax [1] [h] | half-life [1] [h] | IC50 ([2]; Table 6, class symbols) [nM] | IC50 ([2]; Table 6, numeric values) [nM]
Cc1c(-c2ccccc2)cccc1-c1nc2cc(CN3CCCC[C@H]3C(=O)O)c(OCC#N)cc2o1 [Com. EX. No. 1, 1-((6-(cyanomethoxy)-2-(2-methyl-[1,1′-biphenyl]-3-yl)benzo[d]oxazol-5-yl)methyl)piperidine-2-carboxylic acid, reference compound] | 5.84 | 881 | 0.5 | 3.42 |  | 
COc1cc2oc(-c3cccc(-c4ccccc4)c3C)nc2cc1CNCCO [Com. EX. No. 2, 2-(((6-methoxy-2-(2-methyl-[1,1′-biphenyl]-3-yl)benzo[d]oxazol-5-yl)methyl)amino)ethan-1-ol, reference compound] | 5.15 | 329 | 4 | 14.4 |  | 
CSc1cc2oc(-c3cccc(-c4ccccc4)c3C)nc2cc1CN1CCC[C@H]1C(=O)O [Example 2, ((2-(2-methyl-[1,1′-biphenyl]-3-yl)-6-(methylthio)benzo[d]oxazol-5-yl)methyl)-L-proline] | 125 | 12200 | 1 | 17.7 | 0.1 to 10 | 
Cc1c(-c2ccccc2)cccc1-c1nc2cc(CN3CCC[C@H]3C(=O)O)c(Cl)cc2o1 [Example 20, ((6-chloro-2-(2-methyl-[1,1′-biphenyl]-3-yl)benzo[d]oxazol-5-yl)methyl)-L-proline] | 74.5 | 8270 | 1 | 7.52 |  | 1.8
Cc1cc2oc(-c3cccc(-c4ccccc4)c3C)nc2cc1CN1CCCC[C@H]1C(=O)O [Example 22, (S)-1-((6-methyl-2-(2-methyl-[1,1′-biphenyl]-3-yl)benzo[d]oxazol-5-yl)methyl)piperidine-2-carboxylic acid] | 151 | 10300 | 1 | 42.3 |  | 1.8
Cc1c(-c2ccccc2)cccc1-c1nc2cc(CN3CCC[C@H]3C(=O)O)c(C(F)(F)F)cc2o1 [Example 28, ((2-(2-methyl-[1,1′-biphenyl]-3-yl)-6-(trifluoromethyl)benzo[d]oxazol-5-yl)methyl)-L-proline] | 319 | 14400 | 0.3 | 41.2 |  | 1.4
Cc1c(-c2ccccc2)cccc1-c1nc2cc(CN3CCCC[C@H]3C(=O)O)c(OC(F)F)cc2o1 [Example 29, (S)-1-((6-(difluoromethoxy)-2-(2-methyl-[1,1′-biphenyl]-3-yl)benzo[d]oxazol-5-yl)methyl)piperidine-2-carboxylic acid] | 201 | 23300 | 1 | 4.27 | 0.1 to 10 | 
Cc1c(-c2ccccc2)cccc1-c1nc2cc(CN3CCC[C@H]3C(=O)O)c(OC(F)F)cc2o1 [Example 36, ((6-(difluoromethoxy)-2-(2-methyl-[1,1′-biphenyl]-3-yl)benzo[d]oxazol-5-yl)methyl)-L-proline] | 119 | 10200 | 0.5 | 9.3 | 0.1 to 10 | 
Cc1c(-c2ccccc2)cccc1-c1nc2cc(CN3CCOC[C@H]3C(=O)O)c(OC(F)F)cc2o1 [Example 39, (S)-4-((6-(difluoromethoxy)-2-(2-methyl-[1,1′-biphenyl]-3-yl)benzo[d]oxazol-5-yl)methyl)morpholine-3-carboxylic acid] | 121 | 31000 | 1 | 10.8 |  | 1.1
Cc1c(-c2nc3cc(CN4CCC[C@H]4C(=O)O)c(OC(F)F)cc3o2)cccc1-c1ccccc1F [Example 52, ((6-(difluoromethoxy)-2-(2′-fluoro-2-methyl-[1,1′-biphenyl]-3-yl)benzo[d]oxazol-5-yl)methyl)-L-proline] | 246 | 20700 | 2 | 7.72 | 10 to 100 | 
Cc1c(-c2ccccc2)cccc1-c1nc2cc(CN3CCCCC3C(=O)O)c3c(c2o1)C(=O)CO3 (stereo not shown) [Example 73, 1-((2-(2-methyl-[1,1′-biphenyl]-3-yl)-8-oxo-7,8-dihydrobenzofuro[5,4-d]oxazol-5-yl)methyl)piperidine-2-carboxylic acid] |  |  |  |  | 100 to 1000 | 
